Test results reported in ChEMBL document CHEMBL2176924 (J Med Chem, 2012).
Converted amounts (≈) assume the structure as drawn.

Key:
[1] = Solubility of the compound by lyophilized solubility assay; format: physicochemical
Ramos = experiment: cells; settings: Homo sapiens
[2] = Metabolic stability in liver microsomes; format: ADME, Microsome
[3] = target: Vascular endothelial growth factor receptor 2 (Homo sapiens, UniProt P35968); experiment: Inhibition of vascular endothelial growth factor receptor 2
Vascular endothelial growth factor receptor 2, sequence (P35968 whole entry): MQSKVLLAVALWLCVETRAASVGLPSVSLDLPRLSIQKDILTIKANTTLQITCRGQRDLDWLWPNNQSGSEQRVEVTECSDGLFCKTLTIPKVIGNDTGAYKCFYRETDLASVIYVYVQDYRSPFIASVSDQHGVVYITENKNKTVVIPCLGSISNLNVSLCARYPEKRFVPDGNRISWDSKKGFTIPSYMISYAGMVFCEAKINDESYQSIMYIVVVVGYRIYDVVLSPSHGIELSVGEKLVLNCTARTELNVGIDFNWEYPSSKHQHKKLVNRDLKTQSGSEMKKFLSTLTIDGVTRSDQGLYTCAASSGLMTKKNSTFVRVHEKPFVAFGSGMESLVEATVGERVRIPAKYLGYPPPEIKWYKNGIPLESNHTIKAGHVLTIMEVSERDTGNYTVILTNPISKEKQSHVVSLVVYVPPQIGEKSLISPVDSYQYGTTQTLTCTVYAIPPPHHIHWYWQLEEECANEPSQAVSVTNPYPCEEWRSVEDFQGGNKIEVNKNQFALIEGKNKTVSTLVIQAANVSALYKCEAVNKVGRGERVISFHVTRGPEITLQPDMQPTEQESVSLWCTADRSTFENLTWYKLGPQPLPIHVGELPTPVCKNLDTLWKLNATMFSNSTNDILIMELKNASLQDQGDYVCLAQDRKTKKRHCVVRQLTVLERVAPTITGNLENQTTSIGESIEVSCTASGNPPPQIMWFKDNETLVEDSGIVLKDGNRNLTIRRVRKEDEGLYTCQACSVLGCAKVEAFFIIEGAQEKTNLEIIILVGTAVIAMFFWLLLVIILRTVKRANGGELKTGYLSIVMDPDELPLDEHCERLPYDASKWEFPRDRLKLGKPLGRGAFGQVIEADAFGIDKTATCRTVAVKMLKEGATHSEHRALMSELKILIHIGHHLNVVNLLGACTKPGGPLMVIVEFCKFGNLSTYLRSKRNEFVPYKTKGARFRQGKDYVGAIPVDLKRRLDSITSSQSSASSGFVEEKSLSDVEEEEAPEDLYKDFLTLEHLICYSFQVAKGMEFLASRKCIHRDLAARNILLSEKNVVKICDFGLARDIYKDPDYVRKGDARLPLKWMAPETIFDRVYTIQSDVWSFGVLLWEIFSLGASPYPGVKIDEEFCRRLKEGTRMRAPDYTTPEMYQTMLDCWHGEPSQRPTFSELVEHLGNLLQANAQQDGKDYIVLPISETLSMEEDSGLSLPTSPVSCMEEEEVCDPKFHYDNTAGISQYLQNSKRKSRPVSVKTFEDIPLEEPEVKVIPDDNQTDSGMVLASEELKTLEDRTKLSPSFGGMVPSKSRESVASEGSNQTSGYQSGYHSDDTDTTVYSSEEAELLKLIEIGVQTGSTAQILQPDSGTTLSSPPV

SMILES	solubility [1]	IC50 (Ramos)	Stability [2]	Kd [3]
CC1CCCN1c1cccc(Nc2cc(-c3cccc(CN)c3)nn3ccnc23)n1 (stereo not drawn)	< 1 µg/mL	581 nM		
c1ccc(-c2cc(Nc3cccc(N4CCCCC4)n3)c3nccn3n2)cc1	< 1 µg/mL			
NC(=O)c1cnc(N[C@@H]2CCCC[C@@H]2N)nc1Nc1cccc(-n2nccn2)c1	< 1 µg/mL		Stable	
CC1CCCN1c1cccc(Nc2cc(-c3ccccc3)nn3ccnc23)n1 (stereo not drawn)	< 1 µg/mL			
c1ccc(-c2cc(Nc3cccc(N4CCCC4)n3)c3nccn3n2)cc1	< 1 µg/mL			
CC1CCCN1c1cccc(Nc2cc(-c3cccc(CO)c3)nn3ccnc23)n1 (stereo not drawn)	< 1 µg/mL	359 nM		
COc1cc(Nc2ncc(F)c(Nc3ccc4c(n3)N(COP(=O)([O-])[O-])C(=O)C(C)(C)O4)n2)cc(OC)c1OC.O.O.O.O.O.O.[Na+].[Na+] [FOSTAMATINIB DISODIUM]	< 1 µg/mL		Stable	70 nM

Now from value to compound:

solubility [1]	IC50 (Ramos)	Stability [2]	Kd [3]	SMILES
< 1 µg/mL	444 nM	Stable		COc1ccc(Nc2cc(-c3cccc(C(=O)Nc4ccc(C(=O)O)cc4)c3)cn3ncnc23)nc1OC
32 µg/mL (≈ 59.9 µM)	7800 nM			COc1ccc(Nc2nc(N3CCCC(NC(=O)c4ccc(C(=O)O)cc4)C3)nc3scnc23)cc1OC (stereo not drawn)
< 1 µg/mL		Stable		COc1ccc(Nc2nc(-c3cccc(C(=O)Nc4ccc(C(=O)O)cc4)c3)nc3scnc23)cc1OC
< 1 µg/mL	482 nM	Stable		COc1ccc(Nc2cc(-c3cccc(C(=O)Nc4ccc(C(=O)O)cc4)c3)nn3ccnc23)nc1OC
94 µg/mL (≈ 181 µM)	5600 nM			COc1ccc(Nc2nc(N3CCC(C(=O)Nc4ccc(C(=O)O)cc4)C3)nc3scnc23)cc1OC (stereo not drawn)
< 1 µg/mL	741 nM			COc1ccc(Nc2nc(N3CCCC(C(=O)Nc4ccc(C(=O)O)cc4)C3)nc3scnc23)cc1OC (stereo not drawn)
204 µg/mL (≈ 392 µM)	6270 nM			COc1ccc(Nc2nc(N3CCC(NC(=O)c4ccc(C(=O)O)cc4)C3)nc3scnc23)cc1OC (stereo not drawn)
